Test results taken from patent US20200216416A1, “QUINOLINE COMPOUNDS AS INHIBITORS OF TAM AND MET KINASES” (Array BioPharma Inc., priority 2019, published 2020).

Legend:
[1] = target: T1, His-tagged recombinant human AXL cytoplasmic domain (Homo sapiens, UniProt P30530); test: AXL Enzyme Assay (LanthaScreen Eu Kinase Binding); settings: averaged IC50; 60-minute incubation at 22° C.; TR-FRET
T1 construct: His-tagged recombinant human AXL cytoplasmic domain
T1 sequence (P30530 473-894 limits assumed): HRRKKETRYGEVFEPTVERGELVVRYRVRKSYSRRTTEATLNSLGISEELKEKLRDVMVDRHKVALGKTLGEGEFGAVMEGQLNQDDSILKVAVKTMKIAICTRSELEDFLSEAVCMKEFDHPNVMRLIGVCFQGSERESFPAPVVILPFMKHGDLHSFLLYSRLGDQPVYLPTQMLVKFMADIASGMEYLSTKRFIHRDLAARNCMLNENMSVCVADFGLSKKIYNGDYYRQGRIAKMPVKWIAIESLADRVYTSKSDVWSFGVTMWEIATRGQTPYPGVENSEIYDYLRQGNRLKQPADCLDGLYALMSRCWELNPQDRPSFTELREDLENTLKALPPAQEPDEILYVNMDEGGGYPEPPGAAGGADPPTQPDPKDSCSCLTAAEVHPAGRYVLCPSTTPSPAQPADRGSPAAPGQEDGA
Procedure, shortened: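 TR-FRET binding-displacement format: 20 nM Alexa Fluor Tracer 236, 2 nM biotin-anti-His and 2 nM Eu-streptavidin in 25 mM HEPES pH 7.4, 10 mM MgCl2, 0.01% Triton X-100, 2% DMSO. After 60 min at 22 °C, ratiometric percent of control was fitted to a 4-parameter logistic curve, IC50 taken at 50 POC.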

[2] = target: T2, His-tagged recombinant human MER cytoplasmic domain (Homo sapiens, UniProt Q12866); test: MER Enzyme Assay (LanthaScreen Eu Kinase Binding); settings: averaged IC50; MER 5 nM; 60-minute incubation at 22° C.; TR-FRET
T2 construct: His-tagged recombinant human MER cytoplasmic domain
T2 sequence (Q12866 527-999 limits assumed): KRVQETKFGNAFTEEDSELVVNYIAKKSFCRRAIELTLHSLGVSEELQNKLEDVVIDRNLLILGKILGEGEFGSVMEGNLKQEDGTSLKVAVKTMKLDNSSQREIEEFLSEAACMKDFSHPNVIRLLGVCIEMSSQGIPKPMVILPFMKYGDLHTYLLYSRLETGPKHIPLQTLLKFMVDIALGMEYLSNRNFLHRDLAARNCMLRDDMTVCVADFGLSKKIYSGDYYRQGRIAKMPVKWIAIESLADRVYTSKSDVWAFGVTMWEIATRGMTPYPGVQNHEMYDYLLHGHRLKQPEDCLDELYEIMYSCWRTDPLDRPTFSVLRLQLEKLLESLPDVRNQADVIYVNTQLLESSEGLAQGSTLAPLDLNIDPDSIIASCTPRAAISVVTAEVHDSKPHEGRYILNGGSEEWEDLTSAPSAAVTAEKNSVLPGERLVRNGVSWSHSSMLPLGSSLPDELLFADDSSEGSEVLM
Procedure, shortened: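 TR-FRET binding: 5 nM His-MER cytoplasmic domain with 20 nM Tracer 236, 2 nM biotin-anti-His and 2 nM Eu-streptavidin in pH 7.4 HEPES, 10 mM MgCl2, 2% DMSO, with threefold compound dilutions, 60 min at 22 °C. Percent of control was fit to a 4-parameter logistic, and IC50 was taken at 50 POC.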

human MET kinase D1228H = target: T3, human MET kinase D1228H (Homo sapiens, UniProt P08581, D1228H); test: c-Met Enzyme Assay, D1228H mutant; type: binding; settings: averaged IC50; D1228H 2 nM; 60-minute incubation at 22° C.; read-out: D1228 H IC50
T3 construct: GST-tagged recombinant human MET kinase domain; purchased Signal Chem
Procedure, shortened: (§1)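 GST-tagged recombinant MET kinase domain was incubated with 50 nM Alexa-Fluor tracer 236, 2 nM Eu-anti-GST and compound in 25 mM HEPES pH 7.4, 10 mM MgCl2, 0.01% Triton X-100, 1 mM DTT, 2% DMSO for 60 min at 22 °C. TR-FRET ratio gave percent of control, fitted 4-parameter; IC50 at 50 POC.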

human MET kinase D1228N = target: T4, human MET kinase D1228N (Homo sapiens, UniProt P08581, D1228N); test: c-Met Enzyme Assay, D1228N mutant; type: binding; settings: averaged IC50; D1228N 2 nM; 60-minute incubation at 22° C.; read-out: D1228 N IC50
T4 construct: GST-tagged recombinant human MET kinase domain; purchased Signal Chem
Procedure, shortened: as §1

human MET kinase Y1230C = target: T5, human MET kinase Y1230C (Homo sapiens, UniProt P08581, Y1230C); test: c-Met Enzyme Assay, Y1230C mutant; type: binding; settings: averaged IC50; Y1230C 2 nM; 60-minute incubation at 22° C.; read-out: Y1230 C IC50
T5 construct: GST-tagged recombinant human MET kinase domain; purchased Signal Chem
Procedure, shortened: as §1

human MET kinase Y1230H = target: T6, human MET kinase Y1230H (Homo sapiens, UniProt P08581, Y1230H); test: c-Met Enzyme Assay, Y1230H mutant; type: binding; settings: averaged IC50; Y1230H 5 nM; 60-minute incubation at 22° C.; read-out: Y1230 H IC50
T6 construct: GST-tagged recombinant human MET kinase domain; purchased Signal Chem
Procedure, shortened: as §1

human MET kinase Y1230S = target: T7, human MET kinase Y1230S (Homo sapiens, UniProt P08581, Y1230S); test: c-Met Enzyme Assay, Y1230S mutant; type: binding; settings: averaged IC50; Y1230S 8 nM; 60-minute incubation at 22° C.; read-out: Y1230 S IC50
T7 construct: GST-tagged recombinant human MET kinase domain; purchased Signal Chem
Procedure, shortened: as §1

T3 sequence (P08581 1078-1345 D1228H): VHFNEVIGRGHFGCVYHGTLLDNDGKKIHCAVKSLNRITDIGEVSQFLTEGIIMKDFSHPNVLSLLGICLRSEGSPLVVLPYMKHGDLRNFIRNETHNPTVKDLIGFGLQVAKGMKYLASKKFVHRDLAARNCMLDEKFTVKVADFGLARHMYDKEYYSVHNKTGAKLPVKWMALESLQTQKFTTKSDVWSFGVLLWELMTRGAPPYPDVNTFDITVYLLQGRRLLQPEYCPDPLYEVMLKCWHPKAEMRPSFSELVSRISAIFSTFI
T7 sequence (P08581 1078-1345 Y1230S): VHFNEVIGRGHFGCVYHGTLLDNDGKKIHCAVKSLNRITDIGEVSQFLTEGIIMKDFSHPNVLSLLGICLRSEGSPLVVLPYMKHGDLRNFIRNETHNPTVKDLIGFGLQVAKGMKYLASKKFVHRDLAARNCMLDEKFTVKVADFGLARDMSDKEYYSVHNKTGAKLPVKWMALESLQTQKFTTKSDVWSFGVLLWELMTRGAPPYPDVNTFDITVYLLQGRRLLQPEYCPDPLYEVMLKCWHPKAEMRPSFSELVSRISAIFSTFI
T6 sequence (P08581 1078-1345 Y1230H): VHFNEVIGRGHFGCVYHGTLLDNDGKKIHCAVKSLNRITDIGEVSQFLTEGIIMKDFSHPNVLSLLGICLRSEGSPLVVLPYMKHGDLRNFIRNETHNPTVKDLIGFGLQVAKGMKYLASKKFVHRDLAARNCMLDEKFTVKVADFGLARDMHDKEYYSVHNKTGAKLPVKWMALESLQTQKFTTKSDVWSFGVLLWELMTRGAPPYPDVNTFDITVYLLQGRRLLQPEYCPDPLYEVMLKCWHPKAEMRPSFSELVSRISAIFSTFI
T4 sequence (P08581 1078-1345 D1228N): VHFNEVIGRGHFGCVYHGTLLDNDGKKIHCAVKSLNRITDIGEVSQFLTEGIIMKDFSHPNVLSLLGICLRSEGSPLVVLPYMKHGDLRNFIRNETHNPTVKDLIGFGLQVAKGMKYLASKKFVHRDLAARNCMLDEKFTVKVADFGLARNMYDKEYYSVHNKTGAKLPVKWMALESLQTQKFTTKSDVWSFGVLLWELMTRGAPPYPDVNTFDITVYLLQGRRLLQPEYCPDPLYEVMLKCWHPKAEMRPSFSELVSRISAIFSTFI
T5 sequence (P08581 1078-1345 Y1230C): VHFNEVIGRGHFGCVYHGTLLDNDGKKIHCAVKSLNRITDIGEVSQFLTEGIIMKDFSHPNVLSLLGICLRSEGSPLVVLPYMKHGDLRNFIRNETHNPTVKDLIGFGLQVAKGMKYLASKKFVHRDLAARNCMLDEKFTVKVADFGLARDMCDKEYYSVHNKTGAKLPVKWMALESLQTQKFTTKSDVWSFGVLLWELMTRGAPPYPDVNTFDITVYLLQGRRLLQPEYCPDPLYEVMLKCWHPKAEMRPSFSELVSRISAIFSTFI

Row | Compound | IC50 [1] | IC50 [2] | IC50 (human MET kinase D1228H) | IC50 (human MET kinase D1228N) | IC50 (human MET kinase Y1230C) | IC50 (human MET kinase Y1230H) | IC50 (human MET kinase Y1230S)
1 | COc1cc2nccc(Oc3cnc(NC(=O)c4cn(C(C)C)cc(-c5ccc(F)cc5)c4=O)nc3)c2cc1OC [Example 54, N-(5-((6,7-dimethoxyquinolin-4-yl)oxy)pyrimidin-2-yl)-5-(4-fluorophenyl)-1-isopropyl-4-oxo-1,4-dihydropyridine-3-carboxamide] | 5 nM | 10 nM | 3.8 nM | 8.3 nM | 4.3 nM | 7.2 nM | 3.2 nM
2 | COc1cc2nccc(Oc3ccc(NC(=O)c4cn(C)c(C(C)C)c(-c5ccc(F)cc5)c4=O)nc3)c2cc1OC [Example 45, N-(5-((6,7-dimethoxyquinolin-4-yl)oxy)pyridin-2-yl)-5-(4-fluorophenyl)-6-isopropyl-1-methyl-4-oxo-1,4-dihydropyridine-3-carboxamide] | 5 nM | 27 nM | 11.1 nM | 13.4 nM | 4.4 nM | 9.9 nM | 6.2 nM
3 | COc1cc2nccc(Oc3ccc(NC(=O)c4cn(CCC(C)C)cc(-c5ccc(Cl)cc5)c4=O)nc3)c2cc1OC [Example 37] | 5 nM | 16 nM | 10.5 nM | 16.8 nM | 9.3 nM | 16.8 nM | 10.2 nM

These reach a lower IC50 [1]. Values come first.

Row | IC50 [1] | IC50 [2] | IC50 (human MET kinase D1228H) | IC50 (human MET kinase D1228N) | IC50 (human MET kinase Y1230C) | IC50 (human MET kinase Y1230H) | IC50 (human MET kinase Y1230S) | Compound
4 | 1 nM | 2 nM | 3.2 nM | 5.4 nM | 1.7 nM | 3.4 nM | 1.7 nM | COc1cc2nccc(Oc3ccc(NC(=O)c4cn(CCN(C)C)cc(-c5ccc(F)cc5)c4=O)nc3)c2cc1OC [Example 46]
5 | 2 nM | 3 nM | 4.2 nM | 6.5 nM | 2 nM | 4.3 nM | 2.2 nM | CNC(=O)Cn1cc(C(=O)Nc2ccc(Oc3ccnc4cc(OC)c(OC)cc34)cn2)c(=O)c(-c2ccc(F)cc2)c1 [Example 22]
6 | 2 nM | 9 nM | 2.4 nM | 7 nM | 2.4 nM | 6.7 nM | 2.7 nM | COc1cc2nccc(Oc3ccc(NC(=O)c4cn(CCN(C)C)cc(-c5ccc(Cl)cc5)c4=O)nc3)c2cc1OC [Example 42]
7 | 2 nM | 5 nM | 1.6 nM | 2.7 nM | 1.4 nM | 2.9 nM | 1.1 nM | COc1cc2nccc(Oc3ccc(NC(=O)c4cn(CCN(C)C)cc(-c5ccc(F)c(F)c5)c4=O)nc3)c2cc1OC [Example 43, 5-(3,4-difluorophenyl)-N-(5-((6,7-dimethoxyquinolin-4-yl)oxy)pyridin-2-yl)-1-]
